Experimental data published in US12252497B2, “Ras inhibitors” (Revolution Medicines, Inc., priority 2021, dated 2025).
Like-named read-outs stand apart in the source and are kept apart here.

Legend:
[1] = test system: AsPC-1 (K-Ras G12D); assay: Potency assay: pERK; type: cell-based; conditions: Homo sapiens
From the text: The purpose of this assay was to measure the ability of test compounds to inhibit K-Ras in cells. Activated K-Ras induces increased phosphorylation of ERK at Threonine 202 and Tyrosine 204 (pERK). This procedure measures a decrease in cellular pERK in response to test compounds. The procedure described below in NCI-H358 cells is applicable to K-Ras G12C.
Note: This protocol may be executed substituting other cell lines to characterize inhibitors of other RAS variants, including, for example, AsPC-1 (K-Ras G12D), Capan-1 (K-Ras G12V), or NCI-H1355 (K-Ras G13C).
NCI-H358 cells were grown and maintained using media and procedures recommended by the ATCC. On the day prior to compound addition, cells were plated in 384-well cell culture plates (40 μl/well) and grown overnight in a 37° C., 5% CO2 incubator. Test compounds were prepared in 10, 3-fold dilutions in DMSO, with a high concentration of 10 mM. On the day of assay, 40 nL of test compound was added to each well of cell culture plate using an Echo550 liquid handler (LabCyte®). Concentrations of test compound were tested in duplicate. After compound addition, cells were incubated 4 hours at 37° C., 5% CO2. Following incubation, culture medium was removed and cells were washed once with phosphate buffered saline.
In some experiments, cellular pERK level was determined using the AlphaLISA SureFire Ultra p-ERK1/2 Assay Kit (PerkinElmer). Cells were lysed in 25 μL lysis buffer, with shaking at 600 RPM at room temperature. Lysate (10 μL) was transferred to a 384-well Opti-plate (PerkinElmer) and 5 μL acceptor mix was added. […] Signal was read on an Envision plate reader (PerkinElmer) using standard AlphaLISA settings. […] Signal was plotted vs. the decadal logarithm of compound concentration, and IC50 was determined by fitting a 4-parameter sigmoidal concentration response model.
In other experiments, cellular pERK was determined by In-Cell Western. […] Signal was plotted vs. the decadal logarithm of compound concentration, and IC50 was determined by fitting a 4-parameter sigmoidal concentration response model.

[2] = test system: SW1573; conditions: Canon et al., Nature 575:217-223 (2019); cited from earlier work
[3] = ASPC1, read-out: IC50 in the pERK potency assay

Structure (SMILES)	IC50 [1, 3]	other results
CCn1c(-c2cccnc2[C@H](C)OC)c2c3cc(ccc31)-c1csc(n1)C[C@H](NC(=O)[C@H](C1CCCC1)N1CC[C@]3(CCN(C(=O)[C@@]4(C)CN4)C3)C1)C(=O)N1CCC[C@H](N1)C(=O)OCC(C)(C)C2 [Example A5]	> 8 µM	
C=CC(=O)N1CCN(c2nc(=O)n(-c3c(C)ccnc3C(C)C)c3nc(-c4c(O)cccc4F)c(F)cc23)[C@@H](C)C1 [AMG510]		sensitivity of cell line to RAS inhibitor [2]: insensitive
CCn1c(-c2cccnc2[C@H](C)OC)c2c3cc(ccc31)-c1cc(cc(C(F)F)c1)C[C@H](NC(=O)[C@H](C1CCCC1)N1CC[C@]3(CCN(C(=O)[C@@H]4N[C@@H]4C4CC4)C3)C1)C(=O)N1CCC[C@H](N1)C(=O)OCC(C)(C)C2 [Example A18]		IC50 ([1]; ASPC1, AsPC-1 (K-Ras G12D) cells, read-out: IC50 in the pERK potency assay): > 8 µM
CCn1c(-c2cccnc2[C@H](C)OC)c2c3cc(ccc31)-c1cc(cc(C(F)F)c1)C[C@H](NC(=O)[C@H](C(C)C)N1CC[C@]3(CCN(C(=O)[C@@H]4N[C@@H]4C4CC4)C3)C1)C(=O)N1CCC[C@H](N1)C(=O)OCC(C)(C)C2 [Example A17]	> 8 µM	
